Laboratory results: publication PMC7504435, “Combined Protein- and Ligand-Observed NMR Workflow to Screen Fragment Cocktails against Multiple Proteins: A Case Study Using Bromodomains” (Molecules, 2020)
pKd: −log10 of the molar value.

Assays:
BPTF bromodomain [1] = biological target: T1, BPTF bromodomain (Homo sapiens, UniProt Q12830); design: against the bromodomains of BPTF and Plasmodium falciparum GCN5 (PfGCN5); his6; made in house; details: cited from earlier work
BPTF bromodomain [2] = biological target: T1, BPTF bromodomain; experiment: Competition 1H CPMG NMR with BPTF; format: binding; design: deconvolution of the hit mixtures using the non-fluorine-labeled bromodomains; made in house; host or cells: E. coli BL21(DE3)
Procedure: The competition ^1H CPMG NMR and PrOF NMR assays were employed to further probe the binding mode of 9 to PfGCN5.
(§1) ^1H CPMG NMR. ^1H CPMG NMR screen data were acquired on Bruker Avance III HD 500 with the 5 mm Prodigy TCI cryoprobe inverse cryoprobe (^1H 2500:1 S/N). Competition ^1H CPMG NMR data were acquired on Bruker 700 MHz Avance with a CryoProbe 5 mm TXI (^1H S:N with H2O suppression (2mM sucrose) - 900:1) and excitation sculpting water suppression. Proteins were present at 10 µM in 50 mM phosphate, 100 mM NaCl, pH 7.4 in 100% D2O. In separate NMR tubes, a ^1H CPMG NMR pulse was applied to a 1) mixture of ligands (individual ligands present at 100 µM for the screen and 50 µM for competition experiments) and 2) ligands + protein. […] For the competition experiments, τ was increased to 4.0 ms.

BPTF bromodomain [3] = biological target: T1, BPTF bromodomain; experiment: 1H CPMG NMR deconvolution of hit mixtures, BPTF; format: binding; design: deconvolution of the hit mixtures using the non-fluorine-labeled bromodomains; made in house; host or cells: E. coli BL21(DE3); details: 10 µM protein, 100 µM ligand
Procedure: The second step is a ^1H CPMG NMR deconvolution of the hit mixtures using the non-fluorine-labeled bromodomains. ^1H CPMG NMR employs a T2 filter to take advantage of the difference in transverse relaxation time between protein and small molecules to filter out the bound-state ligand(s). Unlike the PrOF NMR assay, a single protein is assayed in each experiment. A binding event is characterized by a decrease in ligand resonance intensity from the ligand alone spectrum to the ligand + protein spectrum. A hit is defined as a decrease in resonance intensity ≥ 20%. The ^1H CPMG NMR assay can be tuned by changing the protein or ligand concentration, filter length (Figure 1), or hit criteria depending on how stringent the desired hit rate is. The number of ^1H CPMG NMR deconvolution experiments is directly informed from the first step. If a mixture from the first step was only a hit for one protein, a single ^1H CPMG NMR deconvolution experiment is needed. If a mixture from the first step was a hit for both proteins, two separate ^1H CPMG NMR deconvolutions experiments are needed to determine the fragments that bind to each protein.
as §1

BRD4 D1 = details: data from previous screen; cited from earlier work
PfGCN5 bromodomain = PfGCN5 bromodomain (Plasmodium falciparum, UniProt Q8IB67); experiment: Competition 1H CPMG NMR with PfGCN5; format: binding
Source text: The competition ^1H CPMG NMR and PrOF NMR assays were employed to further probe the binding mode of 9 to PfGCN5. […] At high concentrations, at or above the protein concentration, the competition maxed out at ~ 50% (Figure 2, Figure S10, Table S5). Conversely, TP-238 was able to compete 9 off from BPTF at low concentrations.
^1H CPMG NMR. ^1H CPMG NMR screen data were acquired on Bruker Avance III HD 500 with the 5 mm Prodigy TCI cryoprobe inverse cryoprobe (^1H 2500:1 S/N). Competition ^1H CPMG NMR data were acquired on Bruker 700 MHz Avance with a CryoProbe 5 mm TXI (^1H S:N with H2O suppression (2mM sucrose) - 900:1) and excitation sculpting water suppression. Proteins were present at 10 µM in 50 mM phosphate, 100 mM NaCl, pH 7.4 in 100% D2O. In separate NMR tubes, a ^1H CPMG NMR pulse was applied to a 1) mixture of ligands (individual ligands present at 100 µM for the screen and 50 µM for competition experiments) and 2) ligands + protein. For competition experiments, the ligands were used individually, and the competitor ligands were spiked into tube 2. ^1H CPMG NMR parameters for the screen: NS = 128, acquisition time = 2 s, τ = 2.5 ms, and L = 120. For the competition experiments, τ was increased to 4.0 ms.

Sequence of PfGCN5 bromodomain (Q8IB67 entry or part of it): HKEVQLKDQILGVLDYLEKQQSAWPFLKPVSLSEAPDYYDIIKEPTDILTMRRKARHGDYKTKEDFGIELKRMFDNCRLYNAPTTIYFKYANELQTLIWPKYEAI

Nc1ccc2c(c1)N(C(=O)C1CC1)CCC2 [Fragment 9]
single-point PrOF NMR Δδ with BPTF (BPTF bromodomain [1]; 400 µM 9, previous screen): 0.453 ppm | pKd (BPTF bromodomain [1]; via PrOF NMR): 3.74 | % drop BPTF (BPTF bromodomain [2]; resonance of 9 at 2.6884 ppm): 46% | % drop BPTF (BPTF bromodomain [2]; resonance of 9 at 6.98 ppm): 68% | BPTF CPMG % decrease (BPTF bromodomain [3]): 100% | 1H CPMG NMR % Drop in Resonance Intensity BPTF (BPTF bromodomain [3]; for 9 from competition experiments (footnote a)): ++++ ^a (++++ = 80–99.9%) | pKd (BRD4 D1): 4.30 | % drop PfGCN5 (PfGCN5 bromodomain; resonance of 9 at 2.6884 ppm, GSK series): 72% | % drop PfGCN5 (PfGCN5 bromodomain; resonance of 9 at 2.6884 ppm, L-Moses series): 83% | % drop PfGCN5 (PfGCN5 bromodomain; resonance of 9 at 6.98 ppm, GSK series): 71% | % drop PfGCN5 (PfGCN5 bromodomain; resonance of 9 at 6.98 ppm, L-Moses series): 75%
